From patent US20060106102A1, “Napththalene derivatives which inhibit the cytokine or biological activity of microphage migration inhibitory factor (mif)” (priority 2002, published 2006)
Where two headings read alike, the source gives them in different places.

What was measured:
[1] = test system: ex vivo splenic T cell proliferation; test: ex vivo antigen-specific splenic T cell proliferation after in vivo treatment; conditions: [mBSA] 10 ug/mL; cells from compound-treated versus vehicle-treated mice
From the text: In vivo administration of such a compound might be expected to exert effects on T cell responsiveness even after the T cells have been removed from exposure to the compound, that is, if T cells were studied ex vivo after in vivo treatment with the MIF antagonist compound. To measure ex vivo antigen-specific T cell activation, spleens were removed from mice with murine antigen induced arthritis, induced as above with mBSA, at day 28 after first immunisation and a single cell suspension prepared in DMEM containing 5% FCS and 0.05% 2-mercaptoethanol. 1×10^5 cells /200 μl were cultured in triplicate in the presence or absence of mBSA (0.1, 1.0, 10 μg /ml) in 96-well plates for 48 hours (37° C., 5% CO2) The T cell proliferation response was determined by measuring ^3H-thymidine incorporation during the final 18 hr. The cells were harvested and radioactivity incorporation into the DNA was measured with a Wallac 1409 liquid scintillation counter. The means of each triplicate culture were calculated. Each experiment comprised at least three individual animals and the results presented represent the mean±SEM of groups of animals in each experiment. The percentage inhibition of T cell proliferation was calculated using the result of the ^3H-thymidine incorporation of cells from compound-treated animals divided by the ^3H-thymidine incorporation of cells from vehicle-treated animals.

[2] = test system: recombinant human macrophage migration inhibitory factor (MIF)-induced proliferation of S112 human dermal fibroblasts; test: MIF-induced proliferation of S112 human dermal fibroblasts, 3H-thymidine incorporation; assay type: cell-based
Method: The activity of each compound was studied in a bioassay utilising MIF-induced proliferation of human dermal fibroblasts. S112 human dermal fibroblasts were propagated in RPMI/10% foetal calf serum (FCS). Prior to experimentation, cells were seeded at 10^5 cells/ml in RPMI/0.1% BSA for 18 hours. At time point zero, culture medium was replaced with RPMI/10% FCS and treatments administered. Cells were treated with recombinant human macrophage migration inhibitory factor (MIF) 50 ng/ml (1.353×10^−9 M) and/or the compound at a 1 or 1000 molar ratio to the concentration of MIF. In some experiments the compound was combined with MIF at time point −30 minutes, prior to adding at time point zero. At time point 30 hours, cells were pulsed with […]. At time point 48 hours, cells were harvested using a semi-automated cell harvester. The radioactivity incorporated into DNA was determined by liquid scintillation counting, with results expressed as [^3H] thymidine incorporation. The proliferation of untreated cells was expressed as 100% and the effect of MIF and each compound expressed in relative %.
The activity of compound 5 was studied in a bioassay utilising MIF-induced proliferation of human dermal fibroblasts. S112 human dermal fibroblasts were propagated in RPMI/10% foetal calf serum (FCS). Prior to experimentation, cells were seeded at 10^5 cells/ml in RPMII/0.1% BSA for 18 hours. At time point zero, culture medium was replaced with RPMI/10% FCS and treatments administered. Cells were treated with recombinant human macrophage migration inhibitory factor (MIF) 50 ng/ml and/or compound 5 at a 1-1000 molar ratio to the concentration of MIF. At a time point 30 hours later, cells were pulsed with 1 μCi/well of ^3H-thymidine. At a time point 48 hours after commencement of the experiment, cells were harvested using a semi-automated cell harvester. The radioactivity incorporated into DNA was determined by liquid scintillation counting, with results expressed as [^3H] thymidine incorporation.

[3] = test system: antigen-specific T cell activation (splenic T lymphocytes from mBSA-immunised mice); test: antigen-specific (mBSA) activation of splenic T lymphocytes in vitro, 3H-thymidine incorporation; assay type: cell-based, C57BL6/J mice; conditions: Mus musculus, T-cell, read-out: EC50 (T cell activation suppressed by 50% compared to vehicle-only-treated cells)
Method: After a further seven (7) days mice were killed and spleens collected aseptically into Hanks buffered saline solution (HBSS). A single cell suspension was prepared in Petri dishes by flushing DMEM through the organ using a 26G needle and 2 mL syringe. The resulting cell suspension was centrifuged for 5-7 minutes and supernatant discarded. Erythrocytes were lysed using a solution containing 0.579% NH4Cl, 0.000037% EDTA, and 0.1% NaHCO3 in a 37° C. water bath. Tubes were then filled with DMEM and centrifuged for 5-7 minutes. […] The specific stimulating antigen, mBSA, was then added at 10-50 μg/mL and plates incubated for 30 hours in a 37° C., 5% CO2 incubator. Tritiated^3H-thymidine was then added at a concentration of 0.5 μCi/well for a further 18 hours. Cells were harvested on a Packard cell harvester, and the harvested material added to 750 μL/tube scintillation fluid. Scintillation counts were read on a Wallac beta-emnission counter. […] Further compounds were also tested for their ability to inhibit antigen-specific T cell activation as a marker of the inhibition of the cytokine or biological activity of MIF using this assay.

[4] = test system: IL-1-induced COX-2 expression; test: IL-1-induced COX-2 expression in S112 human dermal fibroblasts (MIF-dependent event), flow cytometry; assay type: cell-based; conditions: Homo sapiens, Fibroblast; compound 1 uM; IL-1 0.1 ng/ml, 6 hours; S112 cells; read-out: % inhibition of IL-1-induced COX2 expression (Effect)
Method: The activity of each compound was studied in a bioassay utilising MIF-dependent activation of human dermal fibroblasts. […] IL-1-induced COX-2 expression is therefore a MIF-dependent event. […] Prior to experimentation, cells were seeded at 10^5 cells/ml in RPMI/0.1% BSA for 18 hours. […] Cells permeabilised with 0.1% saponin were sequentially labelled with a mouse anti-human COX-2 monoclonal antibody and with sheep-anti-mouse F(ab)2 fragment labelled with fluoroscein isothiocyanate. Cellular fluorescence was determined using a flow cytometer. At least 5000 events were counted for each reading, each of which was performed in duplicate, and the results expressed in mean fluorescence intensity (MFI) after subtraction of negative control-labelled cell fluorescence. The effect of each compound was determined by subtracting the IL-1+compound-treated cell MFI from the IL-1-treated cell MFI and expressed as % inhibition. In each case the % inhibition of IL-1-induced COX2 expression is shown as the mean, or mean±SEM where results are available from multiple experiments.

- EC50 ([3]; mBSA 10 μg/ml): 14.8 µM
- EC50 ([3]; mBSA 50 μg/ml): 49.5 µM
- melting point: 248 to 250 °C
Compound: COc1cc2ccc(C(=O)O)cc2cc1OC [Compound 4, 6,7-dimethoxy-2-naphthanoic acid]
- % inhibition of ex vivo splenic T cell proliferation [1]: 18%
- effect on MIF-induced proliferation of human dermal fibroblasts (FIGS. 1 and 2) ([2]; 1M ratio equivalent to MIF 50 ng/ml): inhibition of MIF-induced proliferation
- inhibition at 0.013 µM ([2]; Homo sapiens, Fibroblast, concentration 0.013 μM, rhMIF 50 ng/ml, S112 cells, read-out: % inhibition of proliferation compared to vehicle plus rhMIF-treated cells): 24%
- inhibition at 1 µM [4]: 2.7%
